From patent US20050101632A1, “Method for the treatment of inflammation” (priority 2000, published 2005)

System: oxazolone-induced hypersensitivity reaction in oxazolone-sensitized mice
Test: Oxazolone-induced delayed-type hypersensitivity (dermal sensitization) in mice
Format: in vivo, CD1 mice

Compound: C[C@]12CCC(=O)C=C1CC[C@@H]1[C@@H]2[C@@H](O)C[C@@]2(C)[C@H]1CC[C@]2(O)C(=O)CO [hydrocortisone]
- body weight (systemic effect) (1% hydrocortisone topical during the challenges, FIG. 7): decrease of body weight
- suppression of mean increase of ear thickness (MIET) (first challenge (acute inflammation), 1% topical twice daily, FIG. 4): 74%
- erythema of the ear (first challenge, topical twice daily): reduced erythema of the ear
